In patent US20160158200A1, “Combinations of Hepatitis C Virus Inhibitors” (priority 2013, published 2016):

What follows are compounds tested on HCV genotype-1a variant with glutamine 30 changed to glutamate in the NS5A protein. Settings: test compound titrated with BMS-790052 fixed at 200 nM; genotype 1a Q30E replicon.
Assay type: cell-based
Procedure, shortened: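 Synergy was assessed by combining several fixed amounts of an NS5A-targeting compound with a titration of the second compound of interest.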

Row | SMILES | Fold-Synergistic 1a (Q30E) [fold]
1 | CC(C)[C@H](NC(=O)C(C)(C)C)c1ncc(-c2ccc(-c3ccc(-c4cnc([C@@H](NC(=O)C(C)(C)C)C(C)C)[nH]4)cc3)cc2)[nH]1 [Compound S-34] | >100
2 | CCOC(=O)N[C@H](c1ncc(-c2ccc(-c3ccc(-c4cnc([C@@H](NC(=O)OCC)C(C)C)[nH]4)cc3)cc2)[nH]1)C(C)C [Compound S-207] | >10
3 | CC1(C)CCCC(C)(C(=O)N[C@H](c2nc(-c3ccc(-c4ccc(-c5c[nH]c([C@@H](NC(=O)C6(C)CCCC(C)(C)O6)C(C)(C)C)n5)cc4)cc3)c[nH]2)C(C)(C)C)O1 (single isomer, unassigned) [Compound W-168] | >10
4 | O=C(c1cc2ccccc2[nH]1)N1CCC[C@H]1c1ncc(-c2ccc(-c3ccc(-c4cnc([C@@H]5CCCN5C(=O)c5cc6ccccc6[nH]5)[nH]4)cc3)cc2)[nH]1 [Compound S-120] | <10
5 | CC1(C(=O)N[C@H](c2nc(-c3ccc(-c4ccc(-c5c[nH]c([C@@H](NC(=O)C6(C)CC6)C(C)(C)C)n5)cc4)cc3)c[nH]2)C(C)(C)C)CC1 [Compound L-45] | >100
6 | CC(C)[C@H](NC(=O)N1CCN(C)CC1)c1ncc(-c2ccc(-c3ccc(-c4cnc([C@@H](NC(=O)N5CCN(C)CC5)C(C)C)[nH]4)cc3)cc2)[nH]1 [Compound S-235] | >10
7 | CCN(CC)C(=O)C(=O)N[C@H](c1nc(-c2ccc(-c3ccc(-c4c[nH]c([C@@H](NC(=O)C(=O)N(CC)CC)C(C)(C)C)n4)cc3)cc2)c[nH]1)C(C)(C)C [Compound W-33] | >100
8 | CC1([C@H](NC(=O)C(O)(CF)CF)c2nc(-c3ccc(-c4ccc(-c5c[nH]c([C@@H](NC(=O)C(O)(CF)CF)C6(C)CC6)n5)cc4)cc3)c[nH]2)CC1 [Compound N-141] | >100
9 | CC(C)(F)C(=O)N[C@H](c1nc(-c2ccc(-c3ccc(-c4c[nH]c([C@@H](NC(=O)C(C)(C)F)C(C)(C)C)n4)cc3)cc2)c[nH]1)C(C)(C)C [Compound N-115] | >100
10 | CCN(CC)C(=O)NC(c1nc(-c2ccc(-c3ccc(-c4c[nH]c(C(NC(=O)N(CC)CC)C(C)C)n4)cc3)cc2)c[nH]1)C(C)C (centres unmarked) [Compound S-229] | >100
11 | CC(C)(C)[C@H](NC(=O)C1(C2(O)CCC(F)(F)CC2)CC1)c1ncc(-c2ccc(-c3ccc4nc([C@@H](NC(=O)C5(C6(O)CCC(F)(F)CC6)CC5)C(C)(C)C)[nH]c4c3)cc2)[nH]1 [Compound B58B] | >100
12 | Cc1c(F)cccc1C(=O)N[C@H](c1ncc(-c2ccc(-c3ccc(-c4cnc([C@@H](NC(=O)c5cccc(F)c5C)C(C)C)[nH]4)cc3)cc2)[nH]1)C(C)C [Compound S-97] | >100
13 | CC(C)(C)[C@H](NC(=O)C(C)(C)C1(O)CCC(F)(F)CC1)c1nc2ccc(C#Cc3ccc4nc([C@@H](NC(=O)C(C)(C)C5(O)CCC(F)(F)CC5)C(C)(C)C)[nH]c4c3)cc2[nH]1.O=C(O)C(F)(F)F [Compound B41A] | >100
14 | CC(C)(C)C(NC(=O)C1(O)CCC1)c1nc(-c2ccc(-c3ccc(-c4c[nH]c(C(NC(=O)C5(O)CCC5)C(C)(C)C)n4)cc3)cc2)c[nH]1 [Compound L-71] | >100
15 | CC(C)(C)[C@H](NC(=O)C1(C(O)c2ccccc2)CC1)c1nc(-c2ccc(-c3ccc(-c4c[nH]c([C@@H](NC(=O)C5(C(O)c6ccccc6)CC5)C(C)(C)C)n4)cc3)cc2)c[nH]1 (single isomer, unassigned) [Compound N-126B] | >100
16 | COc1ccccc1C(O)CC(=O)N[C@H](c1nc(-c2ccc(-c3ccc(-c4c[nH]c([C@@H](NC(=O)C5(C(O)c6ccccc6OC)CC5)C(C)(C)C)n4)cc3)cc2)c[nH]1)C(C)(C)C (single isomer, unassigned) [Compound N-135C] | >100
17 | CC(C)[C@H](NC(=O)C(C)(C)OCCF)c1ncc(-c2ccc(-c3ccc(-c4cnc([C@@H](NC(=O)C(C)(C)OCCF)C(C)C)[nH]4)cc3)cc2)[nH]1 [Compound Y-32] | >100
18 | CC(C)(C)C(NC(=O)C1CCC(O)CC1)c1nc(-c2ccc(-c3ccc(-c4c[nH]c(C(NC(=O)C5CCC(O)CC5)C(C)(C)C)n4)cc3)cc2)c[nH]1 (centres unmarked) [Compound W-134] | >100
19 | CC(C)[C@H](NC(=O)c1ccccc1F)c1ncc(-c2ccc(-c3ccc(-c4cnc([C@@H](NC(=O)c5ccccc5F)C(C)C)[nH]4)cc3)cc2)[nH]1 [Compound P-63] | >100
20 | CC(C)(C)[C@H](NC(=O)C1(C(O)c2ccccc2)CC1)c1nc(-c2ccc(-c3ccc(-c4c[nH]c([C@@H](NC(=O)C5(C(O)c6ccccc6)CC5)C(C)(C)C)n4)cc3)cc2)c[nH]1 (single isomer, unassigned) [Compound N-126C] | >100
21 | CC(C)(C(=O)N[C@H](c1nc(-c2ccc(-c3ccc(-c4c[nH]c([C@@H](NC(=O)C(C)(C)C(O)C5CC(F)(F)C5)C(C)(C)C)n4)cc3)cc2)c[nH]1)C(C)(C)C)C(O)C1CC(F)(F)C1 (single isomer, unassigned) [Compound N-144A] | >100
22 | CC(C)(C(=O)N[C@H](c1nc(-c2ccc(-c3ccc(-c4c[nH]c([C@@H](NC(=O)C(C)(C)C(O)C5CC(F)(F)C5)C(C)(C)C)n4)cc3)cc2)c[nH]1)C(C)(C)C)C(O)C1CC(F)(F)C1 (single isomer, unassigned) [Compound N-144B] | >100
23 | CC1(C(=O)NC(c2nc(-c3ccc(-c4ccc(-c5c[nH]c(C(NC(=O)C6(C)CCCOC6)C(C)(C)C)n5)cc4)cc3)c[nH]2)C(C)(C)C)CCCOC1 (mixture of isomers) [Compound Y-100] | >100
24 | CC(C)[C@H](NC(=O)Cc1ncccn1)c1ncc(-c2ccc(-c3ccc(-c4cnc([C@@H](NC(=O)Cc5ncccn5)C(C)C)[nH]4)cc3)cc2)[nH]1 [Compound P-95] | >10
25 | CC(C)[C@H](NC(=O)C1(C)CCCCC1)c1ncc(-c2ccc(-c3ccc(-c4cnc([C@@H](NC(=O)C5(C)CCCCC5)C(C)C)[nH]4)c(OC(F)F)c3)cc2)[nH]1 [Compound Y-12] | >100
26 | CC(C)[C@H](NC(=O)C12CCC(C1)C(C)(C)C2O)c1nc(-c2ccc(-c3ccc(-c4c[nH]c([C@@H](NC(=O)C56CCC(C5)C(C)(C)C6O)C(C)C)n4)cc3)cc2)c[nH]1 (single isomer, unassigned) [Compound Y-113] | >100
27 | CC(C)[C@H](NC(=O)N(C(C)C)C(C)C)c1nc(-c2ccc(-c3ccc(-c4c[nH]c([C@@H](NC(=O)N(C(C)C)C(C)C)C(C)C)n4)cc3)cc2)c[nH]1 [Compound S-230] | >100
28 | CC(C)(C)C(NC(=O)C1CC12CCC(F)(F)CC2)c1nc(-c2ccc(-c3ccc(-c4c[nH]c(C(NC(=O)C5CC56CCC(F)(F)CC6)C(C)(C)C)n4)cc3)cc2)c[nH]1 (mixture of isomers) [Compound Y-70] | >100
29 | CC(C)CC(=O)NC1(c2ncc(-c3ccc(-c4ccc(-c5cnc(C6(NC(=O)CC(C)C)CCC6)[nH]5)cc4)cc3)[nH]2)CCC1.O=C(O)C(F)(F)F.O=C(O)C(F)(F)F [Compound N-11] | <10
